Experimental data: patent publication US9895363B2, “Methods for modulating function of proliferating cell nuclear antigen (PCNA) and treating cancer with PCNA-targeting compounds” (University of Cincinnati, priority 2010, dated 2018)
pIC50: −log10 of the molar value. Where two headings read alike, the source gives them in different places.

Legend:
[1] = test system: LNCaP prostate cancer cells; assay: Growth inhibition by MTT staining, LNCaP; type: cell-based, Human; settings: 96 h
Procedure: (§1) Growth inhibitory effects of PCNA-I1 and PCNA-I2 were assessed in human cancer cell lines, mouse cancer cell lines, immortalized mouse cell lines, and human primary cell lines. Specifically, growth inhibitory effects of PCNA-I1 and PCNA-I2 were assessed using MTT staining in the following cells lines: 1) human cancer cell lines including LNCaP (androgen receptor […]), 22Rv1, DU-145, LAPC-4, and PC-3 (androgen receptor […]) prostate cancer cells; MCF-7 and T47D breast cancer cells; A375 and MDA-MB435 melanoma cells; 2) mouse cancer cell lines including TRAMP-C2RE3 prostate cancer cells, B16 and K1735 melanoma cells, UV2237 fibrosarcoma cells, and CT-26 colon cancer cells; 3) immortalized mouse lung cell lines and mouse endothelial cell lines; and 4) primary human cell lines including umbilical endothelial cells (HUVEC, PromoCell, Heidelberg, Germany), primary bone marrow mesenchymal stem cells (HuMSC, PromoCell), primary human mammary epithelial cells (HuBrEC, Lonza, Walkersville, Md.), primary human prostate epithelial cells (HuPrEC, Lonza), and primary mouse spleen lymphocytes (isolated in this laboratory), and primary mouse bone marrow stromal cells (isolated in this laboratory). PCNA-I1 and PCNA-I2 were either provided by the University of Cincinnati Drug Discovery Center (UC-DDC, Cincinnati, Ohio) or were purchased from Chembridge Co (San Diego, Calif.), ChemDiv (San Diego, Calif.), and/or Sigma-Aldrich (St Louis, Mo.).
(§2) Growth inhibitory effects of the compounds were assessed by MTT staining as described previously by Dong et al. in In Vitro Model for Intrinsic Drug Resistance: Effects of Protein Kinase C Activators on the Chemosensitivity of Cultured Human Colon Cancer Cells; Mol. Pharmacol. 1991; 39: 563-9. Briefly, cells were cultured and treated in their respective media. Cells were plated into 96-well plates at 1000 to 5000 cells/well. After an overnight incubation, the cells were treated for four days with various concentrations (up to 10 μM) of PCNA-I1 or PCNA-I2. The live cells were stained with MTT and cells in exponential growth phase were harvested by a one to three minute treatment with a 0.25% trypsin-0.02% EDTA solution. Flasks were tapped to detach the cells, RPMI 1640-10% FBS was added, and the cell suspensions were gently agitated to produce single-cell suspensions. The cell suspensions were washed and resuspended in medium with supplements specified for different cells. Only suspensions of single cells with a viability exceeding 95% (ascertained by trypan blue exclusion) were used.
(§3) IC50 values were derived from growth inhibition curves. Data for tumor cells are a mean of five to seven experiments. Data for primary cells are a mean of three experiments. […] Inhibition of cell growth was calculated using the formula: growth inhibition (%)=(1−A570 of treated/A570 of control)×100. IC50 (the concentration that inhibited cell growth by 50%) values were also determined. For evaluation of lymphocyte growth in suspension, an Alamar blue assay was performed, wherein freshly prepared mouse spleen lymphocytes were stimulated for 72 H with 2 ug/mL concanavalin A (Sigma Chemicals, St. Louis, […].). During the last 24 H, 20 μl/well of Alamar blue (Invitrogen, Carlsbad, Calif.) was added. The fluorescence intensity was measured at 530/580 (excitation/emission) in the FLUOstar Omega microplate reader (BMG LABTECH, Cary, N.C.).
(§4) Growth inhibitory effects of PCNA-I3, PCNA-I4, PCNA-I6, PCNA-I7, PCNA-I8, PCNA-I9 and PCNA-I10 were assessed in human prostate cancer cell lines. Specifically, growth inhibitory effects of PCNA-I3, PCNA-I4, PCNA-I6, PCNA-I7, PCNA-I8, PCNA-I9 and PCNA-I10 were assessed using MTT staining in LNCaP and PC-3 cells. […]

Tumor Cells = assay: Growth inhibition, mean over tumor cell lines; type: cell-based; settings: most cell lines examined
Procedure: as §1, with “PCNA-I1 and PCNA-I2 were either provided by the University of Cincinnati Drug Discovery Center (UC-DDC, Cincinnati, Ohio) or were purchased from Chembridge Co (San Diego, Calif.), ChemDiv (San Diego, Calif.), and/or Sigma-Aldrich (St Louis, Mo.).” left out
(§5) IC50 values were derived from growth inhibition curves. […] Inhibition of cell growth was calculated using the formula: growth inhibition (%)=(1−A570 of treated/A570 of control)×100. […]

A375 melanoma cells = assay: Growth inhibition by MTT staining, A375; type: cell-based; settings: A-375, 96 h, Human, treated four days
Procedure: as §1, with “PCNA-I1 and PCNA-I2 were either provided by the University of Cincinnati Drug Discovery Center (UC-DDC, Cincinnati, Ohio) or were purchased from Chembridge Co (San Diego, Calif.), ChemDiv (San Diego, Calif.), and/or Sigma-Aldrich (St Louis, Mo.).” left out
as §5

GFP-PCNA = GFP-PCNA chromatin association, fluorescence microscopy; type: cell-based, Human; settings: PC-3 transfected with pGFP-PCNA; 4 H, 0.5 μM PCNA-I1 or 2 μM PCNA-I2; FIG. 11
Procedure: Additionally, PC-3 cells were transfected for 24 H with pGFP-PCNA. The cells were then treated for 4 H with 0.5 μM of PCNA-I1 or 2 μM of PCNA-I2. The intact GFP-PCNA expressing cells were observed under a fluorescent microscope and recorded. After treatment with a buffer with 0.5% NP-40 buffer B, the cells were examined and recorded.

[2] = test system: PC-3 prostate cancer cells; assay: Growth inhibition by MTT staining, PC-3; type: cell-based, Human; settings: MTT
Procedure: as §1, §2, §3, §4

[3] = test system: LAPC-4 prostate cancer cells; assay: Growth inhibition by MTT staining, LAPC-4; type: cell-based; settings: LAPC4, 96 h, Human tumor cells, treated four days
Procedure: as §1, with “PCNA-I1 and PCNA-I2 were either provided by the University of Cincinnati Drug Discovery Center (UC-DDC, Cincinnati, Ohio) or were purchased from Chembridge Co (San Diego, Calif.), ChemDiv (San Diego, Calif.), and/or Sigma-Aldrich (St Louis, Mo.).” left out
as §5

[4] = test system: DU145 prostate cancer cells; assay: Growth inhibition by MTT staining, DU145; type: cell-based; settings: DU-145, 96 h, Human tumor cells, treated four days
Procedure: as §1, with “PCNA-I1 and PCNA-I2 were either provided by the University of Cincinnati Drug Discovery Center (UC-DDC, Cincinnati, Ohio) or were purchased from Chembridge Co (San Diego, Calif.), ChemDiv (San Diego, Calif.), and/or Sigma-Aldrich (St Louis, Mo.).” left out
as §5

PCNA = biological target: T1, PCNA (Homo sapiens, UniProt P12004); assay: PCNA trimer formation assay, PC-3 cell lysate; type: biochemical; settings: PC-3 lysate, 1 μM or 10 μM, 3 H, SDS-PAGE; FIG. 9(A)
T1 construct: endogenous PCNA was knocked down with transfection of PCNA-specific siRNA; endogenous in cells; host or cells: PC-3
T1 sequence (P12004 whole entry): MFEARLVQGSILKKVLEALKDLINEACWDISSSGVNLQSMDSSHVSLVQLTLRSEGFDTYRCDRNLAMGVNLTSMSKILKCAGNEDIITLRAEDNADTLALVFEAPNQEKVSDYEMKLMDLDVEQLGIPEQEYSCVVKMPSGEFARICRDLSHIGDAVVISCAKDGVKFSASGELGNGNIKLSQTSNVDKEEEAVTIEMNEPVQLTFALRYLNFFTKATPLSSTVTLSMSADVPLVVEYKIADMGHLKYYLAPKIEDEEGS
Procedure: The effect of PCNA-I1, PCNA-I2, PCNA-I3, PCNA-I4, PCNA-I6, PCNA-I7, PCNA-I8, PCNA-I9, and PCNA-I10 on PCNA trimer formation was investigated by SDS-PAGE and immunoblotting. Specifically, a trimer formation assay was performed on both PC-3 cell lysates and purified recombinant protein. The trimer formation assay was performed on purified recombinant protein to determine whether the effects of PCNA compounds on the stable trimer formation required the participation of other cellular proteins.
Purified His-PCNA (0.1 μg/reaction) and PC-3 cell lysates (50 μg/reaction) were incubated for 3 H at room temperature in a reaction buffer (40 mM Tris-HCl, pH 7.5, 0.2 mg/mL BSA, 10 mM MgCl2, and 10% glycerol) in the absence or presence of DMSO (0.1% vehicle control) or PCNA-I1, PCNA-I2, PCNA-I3, PCNA-I4, PCNA-I6, PCNA-I7, PCNA-I8, PCNA-I9, or PCNA-I10 (1 μM or 10 μM). The reaction was stopped by addition of the SDS-PAGE sample buffer without a reducing agent. The samples were resolved in SDS-PAGE without boiling and analyzed by immunoblotting using PCNA antibody.

[5] = test system: MCF-7 breast cancer cells; assay: Growth inhibition by MTT staining, MCF-7; type: cell-based; settings: MCF7, 96 h, Human, tumor cells, treated four days
Procedure: as §1, with “PCNA-I1 and PCNA-I2 were either provided by the University of Cincinnati Drug Discovery Center (UC-DDC, Cincinnati, Ohio) or were purchased from Chembridge Co (San Diego, Calif.), ChemDiv (San Diego, Calif.), and/or Sigma-Aldrich (St Louis, Mo.).” left out
as §5

LNCaP cells [6] = assay: MTT assay, PCNA-I1 and cisplatin alone or combined, LNCaP; type: cell-based, Human
Procedure: (§6) LNCaP or PC-3 cells were treated with a variety of concentrations of PCNA-I1 (0.1-10 μM) or cisplatin (0.1-10 μM) alone, or with a variety of concentrations of a combination of PCNA-I1 (0.1-10 μM) and cisplatin (0.1-10 μM) for four days. MTT assays were performed and IC50 values for PCNA-I1 and cisplatin were determined.

PC-3 cells = assay: MTT assay, PCNA-I1 and cisplatin alone or combined, PC-3; type: cell-based, Human
Procedure: as §6

LNCaP cells [7] = assay: DNA damage, apoptosis and cell cycle proteins by immunoblot, LNCaP; type: cell-based, Human
Procedure: Fluorescence-activated cell sorting (FACS) analysis was performed on both PC-3 cells and LNCaP cells using PCNA-I1. Specifically, cells were treated with 1 or 10 μM PCNA-I1 and sampled for the flow cytometry analysis at 24 H, 48 H, and 72 H. Expression of DNA damage and apoptosis-related proteins in PC-3 cells and LNCaP cells was also determined. Cisplatin, a well-known drug that induces DNA damage and apoptosis, was included in the experiment. LNCaP cells were treated for 6 H, 12 H, or 18 H with 10 μM PCNA-I1, 10 μM cisplatin, or both.
To further explore the differential effects of PCNA-I1 on LNCaP and PC-3 cells, the effects of PCNA-I1 and cisplatin on expression of cell cycle- and apoptosis-related proteins in the two cell lines were compared. LNCaP cells and PC-3 cells were treated with 1 μM PCNA-I1 and/or 5 μM cisplatin for 12 H, 18 H, or 24 H and cell lysates were sampled for immunoblotting.

[8] = test system: primary mouse spleen lymphocytes; assay: Alamar blue assay of lymphocyte growth; type: cell-based; settings: 2 μg/mL, 72 H; FIG. 2(A)
Procedure: as §3
The effects of PCNA-I1 on growth of tumor cells versus primary cells was also investigated. Specifically, the effects of PCNA-1I on the growth of primary cells was investigated using primary culture of mouse lymphocytes. An Alamar blue assay was performed with PC-3 cells as a positive control. Freshly prepared mouse spleen lymphocytes were stimulated for 72 H with 2 μg/mL of concanavalin A. During the last 24 H, 20 μL/well of alamar blue was added. The fluorescence intensity was measured at 530/580 (excitation/emission).

[9] = Homo sapiens, Table III, four days, mean of two experiments, read-out: IC50 Values of PCNA Inhibitors, LNCaP Cells
[10] = Homo sapiens, PC-3, 96 h, Table III, four days, mean of two experiments, read-out: IC50 Values of PCNA Inhibitors, PC-3 Cells

O=C(N/N=C/c1c(O)ccc2ccccc12)c1ccn[nH]1 [PCNA-I2]
pIC50 ([1]; Table II, Human tumor cells, treated four days, mean of five to seven experiments, read-out: IC50 Values, LNCaP): 6.25 | Potency relative to PCNA-I1 (Tumor Cells): about three to five times less potent than PCNA-I1 | pIC50 (A375 melanoma cells): 5.43 | Level of chromatin-associated GFP-PCNA (GFP-PCNA): reduced the level of chromatin-associated GFP-PCNA | Total intensity of GFP-PCNA (GFP-PCNA): did not significantly alter the total intensity of GFP-PCNA | pIC50 ([2]; 96 h, Table II, Human tumor cells, treated four days, mean of five to seven experiments, read-out: IC50 Values, PC-3): 6.01 | pIC50 [3]: 5.75 | pIC50 [4]: 5.92 | Portion of PCNA in the trimer form (PCNA): significantly elevated | pIC50 [5]: 6.00

O=C(N/N=C/c1ccc2ccccc2c1O)c1cccc(Cl)c1 [PCNA-I3]
pIC50 [1, 9]: 6.59 | pIC50 [2, 10]: 6.36

O=C(NNS(=O)(=O)c1ccc(Br)cc1)c1c(O)c2ccccc2[nH]c1=O [PCNA-I4]
pIC50 [1, 9]: 6.17 | pIC50 [2, 10]: 5.52

Cc1ccc2[nH]c(=O)c(/C=N/NC(=O)c3ccccc3)c(O)c2c1 [PCNA-I6]
pIC50 [1, 9]: < 5.00 | pIC50 [2, 10]: < 5.00

O=C(N/N=C/c1ccc2ccccc2c1O)c1sc2ccccc2c1O [PCNA-I7]
pIC50 [1, 9]: 5.66 | pIC50 [2, 10]: 5.44

C/C(=N\NC(=O)c1cccc(F)c1)c1ccc2ccccc2c1O [PCNA-I8]
pIC50 [1, 9]: 6.17 | pIC50 [2, 10]: 6.00

C/C(=N\NC(=O)c1ccccc1O)c1ccc2ccccc2c1O [PCNA-I9]
pIC50 [1, 9]: 6.15 | pIC50 [2, 10]: 5.66

O=C(NNC(=O)c1c(O)c2ccccc2[nH]c1=O)c1ccccc1[N+](=O)[O-] [PCNA-I10]
pIC50 [1, 9]: 5.66 | pIC50 [2, 10]: < 5.00

N.N.[Cl][Pt][Cl] [cisplatin, reference compound]
pIC50 (LNCaP cells [6]; MTT, four days, single agent, read-out: IC50 doses for cell growth inhibition, LNCaP, agent alone): 6.19 | pIC50 (LNCaP cells [6]; combined with 0.067 μM PCNA-I1, read-out: Cisplatin concentration giving 50% inhibition in combination, LNCaP): 6.52 | pIC50 (PC-3 cells; MTT, four days, single agent, read-out: IC50 doses for cell growth inhibition, PC-3, agent alone): 6.35 | pIC50 (PC-3 cells; combined with 0.08 μM PCNA-I1, read-out: Cisplatin concentration giving 50% inhibition in combination, PC-3): 6.52 | Expression of retinoblastoma (Rb) and cyclin D1 (LNCaP cells [7]; LNCaP and PC-3, 1 μM PCNA-I1 and/or 5 μM cisplatin, 12-24 H): moderately downregulated expression of cell cycle-regulating proteins | Phosphorylation of p53, single agent (LNCaP cells [7]; LNCaP, 10 μM): induced | Expression of p21 protein (LNCaP cells [7]; LNCaP, 10 μM PCNA-I1 and/or 10 μM cisplatin): enhanced expression of p21 protein at 6 H and 12 H | PARP cleavage, single agent (LNCaP cells [7]; LNCaP, 10 μM alone): induced PARP cleavage | DNA double strand break (γH2AX induction), single agent (LNCaP cells [7]; LNCaP, 10 μM alone, 6-18 H, FIG. 17(A)): induced moderate double strand break (DSB) of DNA

concanavalin A [reference compound]
Stimulation of lymphocyte growth [8]: about 3.5 fold
